For 16 compounds, IC50 and inhibition results are on record in patent publication US8765748B2, “Indazolyl, benzimidazolyl, benzotriazolyl substituted indolinone derivatives as kinase inhibitors useful in the treatment of cancer” (University Health Network, priority 2007, dated 2014).

Holding throughout (format): biochemical
The target in one experiment is T1, PLK1 (Homo sapiens, UniProt P53350).
T1 construct: purchased Invitrogen PV3501
As to the kind of experiment: PLK1 Inhibition Assay (Z-Lyte). Conditions: for IC50: 25 μM ATP, 8 nM PLK1, read-out: PLK1 IC50 Ranges; for inhibition at 10 µM: 10 μM compound, read-out: PLK1 relative inhibition percentage at a dose of 10 μM. The method, then: PLK1 inhibition was determined using the Z-Lyte assay kit from Invitrogen (cat #PV3802). […] The % inhibition values were determined according to the manufacturer's directions and IC50 values were obtained using a non-linear 4 point logistic curve fit (XLfit4, IDBS)

Another experiment concerns the target T2, human PLK4 (Homo sapiens, UniProt O00444).
T2 construct: amino terminal GST fusion of residues 1-391 of human PLK4; made in house; host or cells: E. coli
T2 sequence (O00444 1-391): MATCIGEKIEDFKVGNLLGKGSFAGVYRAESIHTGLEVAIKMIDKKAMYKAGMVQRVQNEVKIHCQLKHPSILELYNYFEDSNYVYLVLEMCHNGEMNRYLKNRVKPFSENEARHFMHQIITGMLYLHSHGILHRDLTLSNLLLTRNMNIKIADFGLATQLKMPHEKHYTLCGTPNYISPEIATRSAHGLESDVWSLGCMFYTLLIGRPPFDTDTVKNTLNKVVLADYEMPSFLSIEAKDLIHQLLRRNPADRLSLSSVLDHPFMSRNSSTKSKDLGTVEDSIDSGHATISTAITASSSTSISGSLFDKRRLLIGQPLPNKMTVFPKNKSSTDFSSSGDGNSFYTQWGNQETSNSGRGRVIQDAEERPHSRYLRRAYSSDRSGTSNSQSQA
As to the kind of experiment: PLK4 Inhibition Assay (indirect ELISA). The gist of the method: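 IC50 values, from 4-point logistic fitting, reflect remaining activity measured by indirect ELISA. Enzyme was GST-PLK4 treated with lambda phosphatase and given a 15-minute pre-incubation with compound before ATP start.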
A general note: An ELISA detects its analyte on a solid surface through an enzyme-linked reagent.

The target of a further experiment is T3, Aurora A (Homo sapiens, UniProt O14965).
T3 construct: purchased Invitrogen PV3612
T3 sequence (O14965 1-403): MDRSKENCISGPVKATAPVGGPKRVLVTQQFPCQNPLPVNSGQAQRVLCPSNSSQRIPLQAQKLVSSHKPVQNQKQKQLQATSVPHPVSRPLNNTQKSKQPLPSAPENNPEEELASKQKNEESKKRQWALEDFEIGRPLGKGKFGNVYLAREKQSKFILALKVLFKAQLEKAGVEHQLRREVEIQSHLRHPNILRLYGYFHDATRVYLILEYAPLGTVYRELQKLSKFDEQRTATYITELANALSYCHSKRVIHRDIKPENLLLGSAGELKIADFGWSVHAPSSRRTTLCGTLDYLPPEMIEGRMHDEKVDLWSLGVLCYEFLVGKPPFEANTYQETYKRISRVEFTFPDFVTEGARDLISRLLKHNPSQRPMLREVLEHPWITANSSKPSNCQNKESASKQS
Description: Aurora A Inhibition Assay (Z-Lyte). As to conditions: for inhibition at 10 µM: 10 μM compound, read-out: Aurora A relative inhibition percentage at a dose of 10 μM; for IC50: 20 μM ATP, 12 nM Aurora A, read-out: Aurora A IC50 Ranges. The method, then: Aurora A inhibition was determined using the Z-Lyte assay kit from Invitrogen. The assay was performed using the recommended manufacturer's instructions with 20 μM ATP and 12 nM Aurora A (Invitrogen cat #PV3612). The % inhibition values were determined according to the manufacturer's directions and IC50 values were obtained using a non-linear 4 point logistic curve fit (XLfit4, IDBS)

Another experiment concerns the target T4, Aurora B (Homo sapiens, UniProt Q96GD4).
T4 construct: purchased Invitrogen PV3970
As to the kind of experiment: Aurora B Inhibition Assay (Z-Lyte). Conditions: for IC50: 128 μM ATP, 28 nM Aurora B, read-out: Aurora B IC50 Ranges. The method, then: Aurora B inhibition was determined using the Z-Lyte assay kit from Invitrogen. The assay was performed using the recommended manufacturer's instructions with 128 μM ATP and 28 nM Aurora B (Invitrogen cat #PV3970). The % inhibition values were determined according to the manufacturer's directions and IC50 values were obtained using a non-linear 4 point logistic curve fit (XLfit4, IDBS)

For the next experiment, the target named is T5, PLK2 (Homo sapiens, UniProt Q9NYY3).
T5 construct: purchased Invitrogen PV4204
T5 sequence (Q9NYY3 whole entry): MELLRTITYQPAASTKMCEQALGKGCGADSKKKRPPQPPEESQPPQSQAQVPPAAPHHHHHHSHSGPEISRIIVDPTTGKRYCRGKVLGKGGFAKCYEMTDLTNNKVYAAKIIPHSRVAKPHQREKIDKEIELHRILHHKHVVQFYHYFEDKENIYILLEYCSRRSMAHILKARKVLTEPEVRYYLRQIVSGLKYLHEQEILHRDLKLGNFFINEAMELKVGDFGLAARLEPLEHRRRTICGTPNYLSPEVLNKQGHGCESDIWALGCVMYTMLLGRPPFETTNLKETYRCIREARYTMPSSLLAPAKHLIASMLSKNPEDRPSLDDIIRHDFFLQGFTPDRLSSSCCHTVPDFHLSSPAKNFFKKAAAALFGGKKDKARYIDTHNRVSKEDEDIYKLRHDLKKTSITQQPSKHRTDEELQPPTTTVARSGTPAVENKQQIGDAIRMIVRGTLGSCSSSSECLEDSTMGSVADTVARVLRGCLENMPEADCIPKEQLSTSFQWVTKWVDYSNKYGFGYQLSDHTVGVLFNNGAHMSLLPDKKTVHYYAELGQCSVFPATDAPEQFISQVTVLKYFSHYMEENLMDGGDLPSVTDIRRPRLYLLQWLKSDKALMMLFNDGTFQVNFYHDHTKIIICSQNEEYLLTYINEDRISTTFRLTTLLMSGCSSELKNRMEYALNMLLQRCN
Description: PLK2 Inhibition Assay (Z-Lyte). Conditions: for IC50: 60 μM ATP, 133 nM PLK2, read-out: PLK2 IC50 Ranges; for inhibition at 10 µM: 10 μM compound, read-out: PLK2 relative inhibition percentage at a dose of 10 μM. The method, then: PLK2 inhibition was determined using the Z-Lyte assay kit from Invitrogen (cat #PV3802). The assay was performed using the recommended manufacturer's instructions with 60 μM ATP and 133 nM PLK2 (Invitrogen cat #PV4204). The % inhibition values were determined according to the manufacturer's directions and IC50 values were obtained using a non-linear 4 point logistic curve fit (XLfit4, IDBS)

[1] abbreviates: 15 μM ATP, 4 nM GST-PLK4, read-out: PLK4 IC50 Ranges.

Read-outs that look alike come from different tables or passages of the source.

The term IC50 denotes the concentration at which inhibition is half-maximal. The inhibition is the relative decrease from the control value, in per cent.

T4 sequence (Q96GD4 whole entry): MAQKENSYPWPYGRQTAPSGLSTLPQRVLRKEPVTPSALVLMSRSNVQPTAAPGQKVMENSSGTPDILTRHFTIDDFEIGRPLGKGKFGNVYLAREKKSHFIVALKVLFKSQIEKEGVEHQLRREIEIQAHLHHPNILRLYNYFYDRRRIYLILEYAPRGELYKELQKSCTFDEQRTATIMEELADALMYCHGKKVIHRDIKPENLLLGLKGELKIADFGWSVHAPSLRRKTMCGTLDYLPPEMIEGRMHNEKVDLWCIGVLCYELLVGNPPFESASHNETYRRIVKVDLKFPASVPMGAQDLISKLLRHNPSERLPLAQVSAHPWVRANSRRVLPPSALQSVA
T1 sequence (P53350 whole entry): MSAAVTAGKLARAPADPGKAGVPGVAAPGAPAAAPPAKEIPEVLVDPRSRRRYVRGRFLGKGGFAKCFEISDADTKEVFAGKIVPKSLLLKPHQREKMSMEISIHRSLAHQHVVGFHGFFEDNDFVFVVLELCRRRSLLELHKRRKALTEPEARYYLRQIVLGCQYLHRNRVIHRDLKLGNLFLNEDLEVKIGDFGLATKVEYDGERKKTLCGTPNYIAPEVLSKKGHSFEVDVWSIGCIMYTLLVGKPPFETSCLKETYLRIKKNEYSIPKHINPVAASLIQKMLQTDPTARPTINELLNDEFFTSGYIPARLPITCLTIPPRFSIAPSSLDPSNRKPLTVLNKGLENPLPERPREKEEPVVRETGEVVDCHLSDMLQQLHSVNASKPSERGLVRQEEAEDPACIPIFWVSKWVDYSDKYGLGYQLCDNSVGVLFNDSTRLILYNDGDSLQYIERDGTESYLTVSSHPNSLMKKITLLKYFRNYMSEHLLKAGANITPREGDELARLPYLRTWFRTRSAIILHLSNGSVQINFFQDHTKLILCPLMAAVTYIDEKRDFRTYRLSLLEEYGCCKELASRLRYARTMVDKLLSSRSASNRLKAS

`CC(C)(C)OC(=O)Nc1ccc2c(c1)NC(=O)/C2=C/c1ccc2cn[nH]c2c1` [Example A37, (E)-tert-butyl 3-((1H-indazol-6-yl)methylene)-2-oxoindolin-6-ylcarbamate]: the IC50 on PLK1 is greater than 50 µM; at human PLK4 (setting [1]) it was 5 to 50 µM; on Aurora B, less than 5 µM; on PLK2, greater than 50 µM. Further, on Aurora A, the inhibition at 10 µM was less than 50%.

In the case of `O=C1Nc2ccc(Cl)cc2C1=Cc1ccc2c(-c3cccnc3)n[nH]c2c1` (mixture of isomers) [Example A94, (E and Z)-5-chloro-3-((3-(pyridin-3-yl)-1H-indazol-6-yl)methylene)-indolin-2-one], the inhibition at 10 µM at PLK1 and at PLK2 was less than 50% in each case. Moreover, the IC50 on human PLK4 (setting [1]) is less than 5 µM; on Aurora A, greater than 50 µM; at Aurora B, less than 5 µM.

On to `COc1ccc2c(c1)C(=Cc1ccc3cn[nH]c3c1)C(=O)N2` (mixture of isomers) [Example A83, (E and Z)-3-((1H-indazol-6-yl)methylene)-5-methoxyindolin-2-one], for which the inhibition at 10 µM on PLK1, on Aurora A and on PLK2 was greater than 50% throughout. Besides, the half-inhibitory concentration (IC50) on human PLK4 (setting [1]) and at Aurora B was less than 5 µM in each case.

`O=C1Nc2ccccc2C1=Cc1ccc2c(-c3cccnc3)n[nH]c2c1` (mixture of isomers) [Example A93, (E and Z)-3-((3-(pyridin-3-yl)-1H-indazol-6-yl)methylene)indolin-2-one]: the inhibition at 10 µM at PLK1 and on PLK2 was less than 50% each time. For the same compound, the IC50 at human PLK4 (setting [1]), on Aurora A and at Aurora B was less than 5 µM throughout.

`O=C1Nc2ncccc2/C1=C\c1ccc2c(/C=C/c3ccccn3)n[nH]c2c1` [Example A72, (E)-3-((3-((E)-2-(pyridin-2-yl)vinyl)-1H-indazol-6-yl)methylene)-1H-pyrrolo[2,3-b]pyridin-2(3H)-one]: the inhibition at 10 µM on PLK1 was less than 50%; on Aurora A, greater than 50%; on PLK2 it was less than 50%. In addition, the IC50 on human PLK4 (setting [1]) and on Aurora B was less than 5 µM throughout.

As to `Nc1cccc2c1NC(=O)/C2=C/c1ccc2cn[nH]c2c1` [Example A56, (E)-3-((1H-indazol-6-yl)methylene)-7-aminoindolin-2-one], the concentration for half-maximal inhibition (IC50) at PLK1 is greater than 50 µM; on human PLK4 (setting [1]) it was less than 5 µM; at Aurora A, less than 5 µM; at Aurora B it was less than 5 µM; on PLK2 it was less than 5 µM.

With `Nc1ccc2c(c1)NC(=O)/C2=C/c1ccc2cn[nH]c2c1` [Example A38, (E)-3-((1H-indazol-6-yl)methylene)-2-oxoindolin-6-aminium 2,2,2-trifluoroacetate], the IC50 was 5 to 50 µM on PLK1, less than 5 µM at human PLK4 (setting [1]), 5 to 50 µM on Aurora A and less than 5 µM at Aurora B. Besides, the inhibition at 10 µM at PLK2 was less than 50%.

On to `O=C1Nc2c(F)cccc2/C1=C\c1ccc2cn[nH]c2c1` [Example A42, (E)-3-((1H-indazol-6-yl)methylene)-7-fluoroindolin-2-one], for which the IC50 on PLK1 is greater than 50 µM; on human PLK4 (setting [1]), less than 5 µM; at Aurora A, less than 5 µM; on Aurora B it was less than 5 µM. The inhibition at 10 µM at PLK2 is greater than 50%.

On to `CC(=O)Nc1cccc2c1NC(=O)/C2=C/c1ccc2c(/C=C/c3ccncc3)n[nH]c2c1` [Example A120, N-((E)-2-oxo-3-((3-((E)-2-(pyridin-4-yl)vinyl)-1H-indazol-6-yl)-methylene)indolin-7-yl)acetamide], for which the inhibition at 10 µM at PLK1 and on PLK2 was less than 50% each time. The IC50 on human PLK4 (setting [1]), on Aurora A and on Aurora B was less than 5 µM each time.

On to `Cc1ccc2c(c1)/C(=C\c1ccc3c(/C=C/c4ccncc4)n[nH]c3c1)C(=O)N2` [Example A85, (E)-5-methyl-3-((3-((E)-2-(pyridin-4-yl)vinyl)-1H-indazol-6-yl)methylene)indolin-2-one], for which the inhibition at 10 µM at PLK1 and on PLK2 was less than 50% in each case. Also, the IC50 on human PLK4 (setting [1]), on Aurora A and on Aurora B was less than 5 µM each time.

Turning to `COc1ccc2c(c1)/C(=C\c1ccc3c(/C=C/c4cc[n+]([O-])cc4)n[nH]c3c1)C(=O)N2` [Example A117, 4-((E)-2-(6-((E)-(5-methoxy-2-oxoindolin-3-ylidene)methyl)-1H-indazol-3-yl)vinyl)pyridine 1-oxide], the inhibition at 10 µM on PLK1 and on PLK2 was less than 50% throughout. Moreover, the IC50 against human PLK4, on Aurora A and at Aurora B was less than 5 µM in each case.

Regarding `COc1ccc2c(c1)/C(=C\c1ccc3c(-c4ccc(N5CCOCC5)nc4)n[nH]c3c1)C(=O)N2` [Example A112, (E)-5-methoxy-3-((3-(6-morpholinopyridin-3-yl)-1H-indazol-6-yl)-methylene)indolin-2-one], the inhibition at 10 µM on PLK1 and at PLK2 was less than 50% in each case. The IC50 on human PLK4 (setting [1]), on Aurora A and at Aurora B was less than 5 µM in each case.

`O=C1Nc2c(cccc2C(F)(F)F)C1=Cc1ccc2cn[nH]c2c1` (mixture of isomers) [Example A47, (E and Z)-3-((1H-indazol-6-yl)methylene)-7-(trifluoromethyl)indolin-2-one]: the IC50 on PLK1 is greater than 50 µM; at human PLK4 (setting [1]) it was greater than 50 µM; on Aurora A, greater than 50 µM; at Aurora B, 5 to 50 µM; on PLK2 it was greater than 50 µM.

Regarding `COc1ccc2c(c1)/C(=C\c1ccc3c(/C=C/c4ccncc4)n[nH]c3c1)C(=O)N2` [Example A86, (E)-5-methoxy-3-((3-((E)-2-(pyridin-4-yl)vinyl)-1H-indazol-6-yl)methylene)indolin-2-one], the inhibition at 10 µM is less than 50% at PLK1, greater than 50% at Aurora A and less than 50% at PLK2. The IC50 at human PLK4 (setting [1]) and on Aurora B was less than 5 µM in each case.

As to `O=C1Nc2ncccc2/C1=C\c1ccc2cn[nH]c2c1` [Example A67, (E)-3-((1H-indazol-6-yl)methylene)-1H-pyrrolo[2,3-b]pyridin-2(3H)-one], the inhibition at 10 µM at PLK1 is greater than 50%; at Aurora A, greater than 50%; at Aurora B (10 μM compound, read-out: Aurora B relative inhibition percentage at a dose of 10 μM), greater than 50%; on PLK2 it was greater than 50%. Moreover, on human PLK4 (setting [1]), the IC50 is less than 5 µM.

In the case of `O=C1Nc2ccc(Br)cc2/C1=C\c1ccc2c(/C=C/c3ccncc3)n[nH]c2c1` [Example A62, (E)-5-bromo-3-((3-((E)-2-(pyridin-4-yl)vinyl)-1H-indazol-6-yl)-methylene)indolin-2-one], the inhibition at 10 µM on PLK1 and at PLK2 was less than 50% each time. Further, the IC50 at human PLK4 (setting [1]), at Aurora A and on Aurora B was less than 5 µM each time.
